Consider twelve molecules from patent US20220370453A1 (Storm Therapeutics Ltd, priority 2019, published 2022).

Test [1] has as its target T1, BCDIN3D (Homo sapiens, UniProt Q7Z5W3).
T1 sequence (Q7Z5W3 1-292): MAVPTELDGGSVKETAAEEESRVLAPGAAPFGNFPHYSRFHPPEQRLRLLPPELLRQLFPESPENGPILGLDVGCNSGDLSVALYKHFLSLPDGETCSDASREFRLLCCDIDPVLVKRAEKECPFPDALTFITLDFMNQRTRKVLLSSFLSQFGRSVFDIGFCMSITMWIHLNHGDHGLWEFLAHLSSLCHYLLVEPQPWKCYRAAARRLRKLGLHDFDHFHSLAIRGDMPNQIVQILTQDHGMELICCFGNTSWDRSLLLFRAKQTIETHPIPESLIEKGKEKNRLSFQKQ
Description: BCDIN3D InCellPulse thermal stability assay in transfected A549 cells. The test is classed as cell-based. As to conditions: heat shock 58° C. 15 min. The gist of the method: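 Thermal stabilisation read-out: after a 15 min 58 °C heat shock, ePL-tagged BCDIN3D in transiently transfected A549 cells (1500/well) was quantified by enzyme-fragment complementation luminescence. Compounds were pre-incubated with cells 1 h at 37 °C, 0.6% DMSO final.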

Test [2] addresses T1, BCDIN3D. Description: BCDIN3D IC50 RFMS (RapidFire) assay with mini-helix. In kind it is biochemical. As to conditions: 25 nM enzyme. The gist of the method:
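SAH formation was measured by RapidFire mass spectrometry with D4- and 13C10-SAH internal standards after TCA quench. Substrates 6 μM SAM and 0.2 μM mini-helix reacted 1 h at 37 °C with 25 nM enzyme, which had been preincubated 10 min with compound (1% DMSO) in Tris pH 8.0 buffer with DTT, EDTA, BSA.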

[3] abbreviates: transiently transfected A549 cells.
Where [4] appears, read: mini-helix substrate 0.2 μM, SAM 6 μM.

What is called IC50 is the midpoint of a concentration-inhibition curve. Lower therefore signals higher potency. Consider `CC1CC(Nc2nc(NC[C@H](N)c3ccccc3)nc3c2cnn3C)C1` (stereo partly drawn) [Compound 4.87, N6-[(2R)-2-amino-2-phenyl-ethyl]-1-methyl-N4-(3-methylcyclobutyl)pyrazolo[3,4-d]pyrimidine-4,6-diamine], for which the IC50 on BCDIN3D [1] (setting [3]) came out at 0.0709 µM; against BCDIN3D [2] (setting [4]) it was 0.0507 µM.
As to `Cn1ncc2c(NC3(C)CCCCC3)nc(NC[C@H](N)c3ccccc3)nc21` [Compound 4.111, N6-[(2R)-2-amino-2-phenyl-ethyl]-1-methyl-N4-(1-methylcyclohexyl)pyrazolo[3,4-d]pyrimidine-4,6-diamine], the IC50 against BCDIN3D [1] (setting [3]) came out at 0.292 µM; against BCDIN3D [2] (setting [4]) it was 0.369 µM.
Taken in the same sequence, the figures for `Cn1ncc2c(Nc3cccc(C(F)(F)F)c3)nc(NCC3(N)CC3)nc21` [Compound 2.06, 6-N-[(1-aminocyclopropyl)methyl]-1-methyl-4-N-[3-(trifluoromethyl)phenyl]pyrazolo[3,4-d]pyrimidine-4,6-diamine] were 2.21 µM and 0.509 µM.
As to `Cn1ncc2c(Nc3ccc(C(F)(F)F)cc3)nc(NCC3(N)CCCCC3)nc21` [Compound 1.32, N6-[(1-aminocyclohexyl)methyl]-1-methyl-N4-[4-(trifluoromethyl)phenyl]pyrazolo[3,4-d]pyrimidine-4,6-diamine], the IC50 at BCDIN3D [1] (A549 cells transiently transfected with ePL-BCDIN3D, 1 h pre-incubation) worked out at 0.234 µM; on BCDIN3D [2] (mini-helix 0.2 μM and SAM 6 μM as substrates, 1 hr at 37° C.), 0.0779 µM.
As for `Cn1ncc2c(Nc3ccc(Cl)cc3)nc(NCC3(N)CC3)nc21` [Compound 2.28, 6-N-[(1-aminocyclopropyl)methyl]-4-N-(4-chlorophenyl)-1-methylpyrazolo[3,4-d]pyrimidine-4,6-diamine], the IC50 against BCDIN3D [1] (setting [3]) stood at 1.07 µM; against BCDIN3D [2] (setting [4]), 0.0574 µM.
Taken in the same sequence, the figures for `Cc1ccc(CNc2nc(NC3CCCCC3N)nc3c2cnn3C)cc1Cl` (stereo not drawn) [Compound 3.30, N6-(2-aminocyclohexyl)-N4-[(3-chloro-4-methylphenyl)methyl]-1-methyl-1H-pyrazolo[3,4-d]pyrimidine-4,6-diamine] were 1.41 µM and 1.14 µM.
`Cc1nn(C)c2nc(NCC3(N)CC3)nc(Nc3ccc(C(F)(F)F)cc3)c12` [Compound 2.30, 6-N-[(1-aminocyclopropyl)methyl]-1,3-dimethyl-4-N-[4-(trifluoromethyl)phenyl]pyrazolo[3,4-d]pyrimidine-4,6-diamine]: the IC50 at BCDIN3D [1] (setting [3]) turned out to be 1.78 µM; against BCDIN3D [2] (setting [4]), 0.545 µM.
As for `Cn1ncc2c(Nc3ccc(C#N)cc3)nc(NCC3(N)CCCC3)nc21` [Compound 3.22, 4-[[6-[(1-aminocyclopentyl)methylamino]-1-methylpyrazolo[3,4-d]pyrimidin-4-yl]amino]benzonitrile], the IC50 stood at 2.26 µM against BCDIN3D [1] (setting [3]) and 1.8 µM against BCDIN3D [2] (setting [4]).
Turning to `Cn1ncc2c(NCC(C)(C)C)nc(NC[C@H](N)c3ccccc3)nc21` [Compound 4.72, N6-[(2R)-2-amino-2-phenyl-ethyl]-N4-(2,2-dimethylpropyl)-1-methyl-pyrazolo[3,4-d]pyrimidine-4,6-diamine], the figures for the IC50 at BCDIN3D [1] (setting [3]) and at BCDIN3D [2] (setting [4]) were 0.318 µM and 0.154 µM, respectively.
Taken in the same sequence, the figures for `Cn1ncc2c(Nc3ccc(OC(F)F)nc3)nc(NCC(C)(N)c3ccccc3)nc21` (stereo not drawn) [Compound 4.29, N6-(2-amino-2-phenyl-propyl)-N4-[6-(difluoromethoxy)-3-pyridyl]-1-methyl-pyrazolo[3,4-d]pyrimidine-4,6-diamine] were 0.525 µM and 0.116 µM.
On to `Cn1ncc2c(Nc3ccc(OC(F)(F)F)cc3)nc(NCC3(N)CCCC3)nc21` [Compound 3.23, 6-N-[(1-aminocyclopentyl)methyl]-1-methyl-4-N-[4-(trifluoromethoxy)phenyl]pyrazolo[3,4-d]pyrimidine-4,6-diamine], for which the IC50 against BCDIN3D [1] (setting [3]) was 0.267 µM; on BCDIN3D [2] (setting [4]), 0.115 µM.
Taken in the same sequence, the figures for `Cn1ncc2c(NC3CCC(F)(F)CC3)nc(NCC(N)c3ccccc3)nc21` (stereo not drawn) [Compound 4.68, 6-N-(2-amino-2-phenylethyl)-4-N-(4,4-difluorocyclohexyl)-1-methylpyrazolo[3,4-d]pyrimidine-4,6-diamine] were 3.24 µM and 1.14 µM.
